Structures are written as SMILES. Like-named read-outs stand apart in the source and are kept apart here.

In data set [1] the test system is human cutaneous melanoma A16-F10 cell lines. Description: MTT antiproliferation assay, A16-F10. It counts as cell-based. The procedure:
(§1) The effects on tumor cell proliferation: the antiproliferative activities of α-(3,5-dimethoxy-benzylidene)-α′-hydrocarbonyl methylene cyclic ketone on human hepatoma HepG2 tumor cell lines and human cutaneous melanoma A16-F10 cell lines were evaluated using methyl thiazolyl tetrazolium (MTT) assay.
(§2) Experimental procedures are performed as follows: tumor cells in DMEM culture medium containing 10% fetal bovine serum, 100 U·mL^−1 penicillin and 100 U·mL^−1 streptomycin were cultured in an incubator under 5% CO2 and saturated humidity at 37. Test compounds were dissolved in dimethyl sulfoxide and then diluted with DMEM culture medium to the corresponding concentration, wherein the final concentration of dimethyl sulfoxide was less than 0.01%.
(§3) Negative control group, the blank control group and experimental groups were separately set up, each group with three double-wells. The negative control group was only added with cells but without the drug, the blank control group wad only added with dimethyl sulfoxide solution. The experimental group was added at each well with 11 μL solution containing different concentrations of the sample to be tested, such that the final concentration of the drug were […]. The cells were cultured for additional 48 h in a incubator with 5% CO2 at 37, subsequently the culture solution was gently sucked out and each well was added with 200 μL 0.5 mg/mL of MTT solution. The cells were cultured for another 6 h, then the MTT culture solution was sucked out and each well was added with 150 μL dimethyl sulfoxide, followed by oscillation dissolved for 10 min. The absorbance OD values in each well were measured at the measurement wavelength 570 nm and the reference wavelength 630 nm using a microplate reader.
For orientation: Tetrazolium dyes change colour on reduction, which living cells bring about.

The subject of data set [2] is human hepatoma HepG2 tumor cell lines. Put plainly: MTT antiproliferation assay, HepG2. It counts as cell-based. To be noted: for IC50: MTT, 48 h. The procedure: as §1, §2, §3
The target of data set [3] is EGFR (Homo sapiens (Human), UniProt P00533). Description: EGFR kinase autophosphorylation, time-resolved fluorescence. It counts as biochemical. The following applies: Table 1. The procedure:
Determination of the inhibitory effect of the compound on EGFR: the kinase activity of EGFR was detected according to time-resolved fluorescence detection technology to evaluate automatic phosphorylation levels. The test compound was dissolved in 100% DMSO, diluted with 25 mM HEPES (pH=7.4) to the desired concentration, added into each well with 10 μL of the test compounds and 10 μL solution containing 5 ng EGFR, then cultured for 10 min at room temperature using the recombinase diluted by 100 mM HEPES with a dilution ratio of 1:80, subsequently added with 10 μL solution containing 20 mM HEPES, 2 mM MnCl2, 100 μM Na3VO4, 1 mM DTT buffer, and 20 μL of 0.1 mM ATP and 50 mM MgCl2 and cultured for 1 h. The positive group in each plate was added with ATP-MgCl2 enzyme, the negative control group without adding with ATP-MgCl2 enzyme, the liquid was sucked out completely after cultured for 1 h, and each well was washed with buffer for three times. The wells were added with 75 μL anti-phosphorylated tyrosine antibody containing 400 ng europium labeling and cultured 1 h, washed, then added with enhancing solution.

[4] abbreviates: Table 1, MTT, 48 h, read-out: anti-proliferation IC50 A16-F10.
[5] abbreviates: Table 1, read-out: anti-proliferation IC50 Hep G2.
[6] abbreviates: Homo sapiens, A16-F10, Table 1, MTT, 48 h, read-out: anti-proliferation IC50 A16-F10.
Setting [7] is: Homo sapiens, HepG2, Table 1, read-out: anti-proliferation IC50 Hep G2.
Where [8] appears, read: Homo sapiens, HepG2, Table 2, read-out: Anti-proliferative effect on HepG2 tumor cells IC50.

Sequence of EGFR (P00533 25-1210, species assumed): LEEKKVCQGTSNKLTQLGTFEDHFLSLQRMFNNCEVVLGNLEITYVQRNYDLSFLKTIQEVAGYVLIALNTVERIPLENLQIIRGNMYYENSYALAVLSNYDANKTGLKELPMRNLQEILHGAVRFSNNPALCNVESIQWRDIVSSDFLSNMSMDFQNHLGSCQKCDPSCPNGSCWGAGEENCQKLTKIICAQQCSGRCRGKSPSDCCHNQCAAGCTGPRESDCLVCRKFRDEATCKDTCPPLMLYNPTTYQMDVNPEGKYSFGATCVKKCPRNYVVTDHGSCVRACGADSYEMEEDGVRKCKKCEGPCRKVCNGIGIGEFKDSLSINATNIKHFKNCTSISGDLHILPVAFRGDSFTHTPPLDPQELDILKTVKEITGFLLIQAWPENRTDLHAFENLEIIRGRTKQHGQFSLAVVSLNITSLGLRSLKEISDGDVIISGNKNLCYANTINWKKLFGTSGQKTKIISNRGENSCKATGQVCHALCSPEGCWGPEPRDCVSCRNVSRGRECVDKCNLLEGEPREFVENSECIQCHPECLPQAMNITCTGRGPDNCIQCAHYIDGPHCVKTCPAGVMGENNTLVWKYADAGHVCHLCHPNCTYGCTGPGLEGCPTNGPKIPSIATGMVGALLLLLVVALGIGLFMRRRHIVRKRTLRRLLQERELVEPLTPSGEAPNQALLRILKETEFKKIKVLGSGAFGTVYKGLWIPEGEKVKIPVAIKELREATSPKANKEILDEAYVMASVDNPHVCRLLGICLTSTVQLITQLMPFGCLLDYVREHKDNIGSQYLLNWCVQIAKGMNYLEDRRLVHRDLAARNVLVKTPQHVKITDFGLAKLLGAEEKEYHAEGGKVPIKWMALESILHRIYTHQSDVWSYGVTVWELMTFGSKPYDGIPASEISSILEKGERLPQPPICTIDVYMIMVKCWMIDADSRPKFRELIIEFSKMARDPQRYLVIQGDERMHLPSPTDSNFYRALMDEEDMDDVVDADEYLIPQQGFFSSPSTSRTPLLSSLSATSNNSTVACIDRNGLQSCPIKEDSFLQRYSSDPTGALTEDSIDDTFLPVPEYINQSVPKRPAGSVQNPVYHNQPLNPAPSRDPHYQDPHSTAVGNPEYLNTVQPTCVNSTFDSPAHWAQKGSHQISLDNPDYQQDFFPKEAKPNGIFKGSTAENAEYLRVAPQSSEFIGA

On to `COc1cc(/C=C2\CCC/C(=C\C3CCCCC3)C2=O)cc(OC)c1` [(2E,6E)-2-(3,5-dimethoxybenzyl-idene)-6-(cyclohexylmethylene)cyclohexanone], for which the figures for the IC50 in data set [1] (setting [4]), in data set [2] (setting [5]) and in data set [3] were 12.2 µM, 17.2 µM and 7.52 µM, respectively.
In the case of `COc1cc(/C=C2\CCC/C(=C\c3ccc(O)c(O)c3)C2=O)cc(OC)c1` [(2E,6E)-2-(3,5-dimethoxybenzylidene)-6-(3,4-dihydroxybenzylidene)cyclohexanone], the IC50 in data set [1] (setting [6]) is 0.71 µM; in data set [1] (Homo sapiens, A16-F10, cell line not given, read-out: anti-tumor activity IC50), below 1 µM; in data set [2] (setting [7]), 1.01 µM; in data set [3] it was 0.43 µM.
Regarding `COc1cc(/C=C2\CCC/C(=C\c3ccc(N(C)C)cc3)C2=O)cc(OC)c1` [(2E,6E)-2-(3,5-dimethoxybenzyl-idene)-6-(4-dimethylaminobenzylidene)cyclohexanone], the IC50 in data set [1] (setting [4]) came out at 5.84 µM; in data set [2] (setting [5]) it was 11.8 µM; in data set [3] it was 3.98 µM.
On to `COc1cc(/C=C2\CC/C(=C\c3ccccc3)C2=O)cc(OC)c1` [(2E,5E)-2-(3,5-dimethoxybenzylidene)-5-benzylidenecyclopentanone], for which, in data set [2] (setting [8]), the IC50 was determined as 11.3 µM. The “anti-proliferative effect on HepG2 tumor cell lines (in words)” value in data set [2] (comparison) was “significantly stronger than curcumin”.
For `COc1cc(/C=C2\CCC/C(=C\c3cc(C(C)(C)C)c(O)c(C(C)(C)C)c3)C2=O)cc(OC)c1` [(2E,6E)-2-(3,5-dimethoxybenzylidene)-6-(3,5-di-t-butyl-4-hydroxybenzylidene)cyclohexanone], the IC50 in data set [3] was 4.81 µM.
For `COc1ccc(/C=C2\CCC/C(=C\c3cc(OC)cc(OC)c3)C2=O)cc1` [(2E,6E)-2-(3,5-dimeth-oxybenzylidene)-6-(4-methoxybenzylidene)cyclohexanone], the IC50 in data set [3] came out at 18.7 µM.
The same measure, in the same setting: the same measure for `COc1cc(/C=C2\CCC/C(=C\c3ccccc3Cl)C2=O)cc(OC)c1` [(2E,6E)-2-(3,5-dimethoxybenzyl-idene)-6-(2-chlorobenzylidene)cyclohexanone]: 1.54 µM.
Consider `COc1cc(/C=C2\CCC/C(=C\c3ccc(O)cc3)C2=O)cc(OC)c1` [(2E,6E)-2-(3,5-dimethoxybenzylidene)-6-(4-hydroxybenzylidene)cyclohexanone], for which the IC50 in data set [3] is 4.66 µM.
On the same count and under the same terms, the figure for `COc1cc(/C=C2\CCC/C(=C\c3cccc(Cl)c3)C2=O)cc(OC)c1` [(2E,6E)-2-(3,5-dimethoxybenzyl-idene)-6-(3-chlorobenzylidene)cyclohexanone] is 2.27 µM.
Consider `COc1cc(/C=C2\CCC/C(=C\c3cc(OC)cc(OC)c3)C2=O)cc(OC)c1` [(2E,6E)-2,6-bis (3,5-dimethoxybenzylidene)cyclohexanone], for which the IC50 in data set [1] (setting [6]) was 4.71 µM; in data set [2] (setting [7]), 8.56 µM; in data set [3], 2.08 µM.
As to `COc1cc(/C=C2\CCC/C(=C\c3ccc(F)cc3)C2=O)cc(OC)c1` [(2E,6E)-2-(3,5-dimethoxybenzyl-idene)-6-(4-fluorobenzylidene)cyclohexanone], the IC50 is 7.63 µM in data set [1] (setting [4]), 12.1 µM in data set [2] (setting [5]) and 5.69 µM in data set [3].
On to `C#Cc1cccc(Nc2ncnc3cc(OCCOC)c(OCCOC)cc23)c1` [erlotinib, reference compound], for which the IC50 in data set [1] (setting [6]) came to 0.2 µM.
Turning to `COc1cc(/C=C2\CCC/C(=C\c3ccccc3Br)C2=O)cc(OC)c1` [(2E,6E)-2-(3,5-dimethoxybenzyl-idene)-6-(2-bromobenzylidene)cyclohexanone], the IC50 was 12.4 µM in data set [1] (setting [4]), 32.2 µM in data set [2] (setting [5]) and 8.08 µM in data set [3].
In data set [3], `COc1cc(/C=C2\CCC/C(=C\c3ccc(Br)cc3)C2=O)cc(OC)c1` [(2E,6E)-2-(3,5-dimethoxybenzyl-idene)-6-(4-bromophenyl-methylene)cyclohexanone] showed an IC50 of 7.12 µM.
On to `COc1cc(/C=C2\CCC/C(=C\c3ccc(OC)c(O)c3)C2=O)cc(OC)c1` [(2E,6E)-2-(3,5-dimethoxy-benzylidene)-6-(3-hydroxy-4-methoxybenzylidene)cyclohexanone], for which the melting point (as a rule, the temperature, or range, at which the solid turns liquid) was 131.2 to 131.6 °C. In data set [3], this molecule showed an IC50 of 5.37 µM.
`COc1cc(/C=C2\CCC/C(=C\c3cccc(Br)c3)C2=O)cc(OC)c1` [(2E,6E)-2-(3,5-dimethoxybenzylidene)-6-(3-bromobenzylidene)cyclohexanone] yielded an IC50 in data set [3] of 6.85 µM.
`COc1cc(/C=C2\CCC/C(=C\c3ccccc3)C2=O)cc(OC)c1` [(2E,6E)-2-(3,5-dimethoxy-benzylidene)-6-benzylidene cyclohexanone]: the IC50 in data set [3] turned out to be 1.68 µM.
The same measure, in the same setting: the same measure for `COc1cccc(/C=C2\CCC/C(=C\c3cc(OC)cc(OC)c3)C2=O)c1` [(2E,6E)-2-(3,5-dimethoxybenzyl-idene)-6-(3-methoxybenzylidene)cyclohexanone]: 6.13 µM.
Regarding `COc1cc(/C=C2\CCC/C(=C\c3ccccc3OC)C2=O)cc(OC)c1` [(2E,6E)-2-(3,5-dimethoxybenzyl-idene)-6-(2-methoxybenzylidene)cyclohexanone], the IC50 in data set [1] (setting [4]) and in data set [2] (setting [5]) was above 200 µM throughout.
On to `COc1cc(/C=C2\CCC/C(=C\c3ccc(S(C)(=O)=O)cc3)C2=O)cc(OC)c1` [(2E,6E)-2-(3,5-dimethoxybenzyl-idene)-6-(4-methylsulphonylbenzylidene)cyclohexanone], for which, in data set [3], the IC50 is 1.96 µM.
Take `COc1cc(/C=C/C(=O)CC(=O)/C=C/c2ccc(O)c(OC)c2)ccc1O` [curcumin, reference compound]: the IC50 in data set [1] (setting [6]) turned out to be 18.7 µM.
Consider `COc1cc(/C=C2\CCC/C(=C\c3ccc(Cl)cc3)C2=O)cc(OC)c1` [(2E,6E)-2-(3,5-dimethoxybenzyl-idene)-6-(4-chlorobenzylidene)cyclohexanone], for which the IC50 turned out to be 18.4 µM in data set [1] (setting [4]), 25.5 µM in data set [2] (setting [5]) and 15.3 µM in data set [3].
Regarding `COc1cc(/C=C2\CCC/C(=C\c3ccccc3F)C2=O)cc(OC)c1` [(2E,6E)-2-(3,5-dimethoxybenzylidene)-6-(2-fluorobenzylidene)cyclohexanone], the IC50 in data set [1] (setting [6]) worked out at 5.64 µM; in data set [2] (setting [7]), 7.53 µM; in data set [3], 2.17 µM.
Turning to `COc1cc(/C=C2\CC/C(=C\c3ccc(F)cc3)C2=O)cc(OC)c1` [(2E,5E)-2-(3,5-dimethoxybenzylidene)-5-(4-fluorobenzylidene)cyclopentanone], the IC50 in data set [2] (setting [8]) amounted to 79.9 µM.

These data come from patent US9409845B2, “Alpha-(3,5-dimethoxybenzylidene)-alpha′-hydrocarbyl methylene cyclic ketone and preparation method thereof” (PHARMAXYN LABORATORIES LTD., priority 2012, dated 2016).
